For the assay, the target named is T1, Human Recombinant Matriptase 2 (Homo sapiens, UniProt Q8IU80).
T1 construct: made in house
T1 sequence (Q8IU80 1-811): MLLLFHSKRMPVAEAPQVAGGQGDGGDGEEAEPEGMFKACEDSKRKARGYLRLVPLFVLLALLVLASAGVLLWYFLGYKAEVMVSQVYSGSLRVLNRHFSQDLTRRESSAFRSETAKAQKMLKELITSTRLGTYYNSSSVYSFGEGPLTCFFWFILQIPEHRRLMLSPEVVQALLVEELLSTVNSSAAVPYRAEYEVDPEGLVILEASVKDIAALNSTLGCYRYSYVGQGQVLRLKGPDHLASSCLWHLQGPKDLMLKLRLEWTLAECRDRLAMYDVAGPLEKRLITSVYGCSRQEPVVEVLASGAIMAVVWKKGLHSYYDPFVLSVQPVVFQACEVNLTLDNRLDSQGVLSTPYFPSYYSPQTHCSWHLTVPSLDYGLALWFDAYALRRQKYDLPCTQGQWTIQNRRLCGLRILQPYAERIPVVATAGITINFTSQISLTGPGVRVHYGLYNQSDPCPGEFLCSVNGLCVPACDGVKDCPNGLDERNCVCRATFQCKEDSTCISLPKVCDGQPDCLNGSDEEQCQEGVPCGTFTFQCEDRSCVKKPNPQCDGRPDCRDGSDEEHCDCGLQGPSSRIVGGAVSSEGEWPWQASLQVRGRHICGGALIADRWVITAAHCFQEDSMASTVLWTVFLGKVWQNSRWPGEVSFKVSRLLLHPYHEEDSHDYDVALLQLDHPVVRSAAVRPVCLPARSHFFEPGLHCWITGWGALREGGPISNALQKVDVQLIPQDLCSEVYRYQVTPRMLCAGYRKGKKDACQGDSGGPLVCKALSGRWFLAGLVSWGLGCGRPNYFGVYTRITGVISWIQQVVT
The experiment in a line: Matriptase 2 inhibition, fluorescence based assay (Method I). It is filed as biochemical. Particulars: Table A; Ki of Matriptase-2 given as class symbols; read-out: Mat-2 Ki. An outline of the steps:
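Fluorogenic readout (Ex 360/Em 480 nm) taken 60 min after adding 62 μM Boc-Gln-Ala-Arg-AMC, following 30-min enzyme–compound preincubation at 25 °C. Conditions: 3.5 nM in-house enzyme, pH 7.5 Tris/NaCl/gelatin buffer, 1% DMSO; percent inhibition versus concentration fitted by variable-slope sigmoidal regression.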

One may read the Ki as the equilibrium dissociation constant of an inhibitor or competing ligand from its target.

With `CN1CCC(CS(=O)(=O)Nc2cc(Cn3c(C(=O)O)cc4ccc(CN)nc43)c3ccccc3c2)CC1` [Compound 237, 6-(aminomethyl)-1-({3-[(1-methylpiperidin-4-yl)methanesulfonamido]-naphthalen-1-yl}methyl)-1H-pyrrolo[2,3-b]pyr-idine-2-carboxylic acid], the Ki lay in the range of 0.1 to 0.5 µM.

Values taken from patent US20240400553A1, “AMINE BASED MATRIPTASE 2 INHIBITORS AND USES THEREOF” (Disc Medicine, Inc., priority 2023, published 2024).
